Read-outs that look alike come from different tables or passages of the source. Where a SMILES comes first, the peptide text is derived from it.
Key:
S. aureus = assay: Antimicrobial activity by flow cytometry (SYBR Green / propidium iodide); assay type: cell-based, Staphylococcus aureus subsp. aureus CECT 4013
Procedure: The strain used was CECT 4013 of S. aureus subsp. aureus, publicly accessible deposited in the Spanish Type Culture Collection (CECT).
Starting from cells of S. aureus cultured overnight in a liquid medium LB (peptone 1%, yeast extract 0.5% and NaCl 1%) at 37° C. with stirring, aliquots were obtained in a new liquid medium and allowed to grow until reaching an optical density at 600 nm (OD600) of 0.5, optimum for detection in the flow cytometer. Aliquots were prepared with a concentration of 5×10^6 cfu/100 μL of S. aureus to which were added 10, 15, 20 and 25 μg/mL of PaSK, 25 μg/mL of TcDef3-pep and H2O (negative control), solvent used to dilute the peptides. The mixtures were incubated at 37° C. for 8 h and marked with the fluorochromes SYBR Green (Invitrogen) (25 μL of a SYBR Green 25× solution in H2O) that stains all the cells and propidium iodide (Sigma) (10 μL of propidium iodide 1 mg/mL) that stains dead cells. Finally, the cell death caused by the peptides was analysed by flow cytometry with the equipment BD Facs Verse (Becton Dickinson), from the cell culture and flow cytometry section of the Central Services for Research Support of the University of Valencia. The experiments were performed in duplicate.
The flow cytometer forces cells to pass one by one through a needle, creating a thin line of liquid and detecting how the laser beam (argon emission laser at 488 nm, in the equipment used) interacts with the cells, depending on how the incident light is deviated and the fluorescence emitted by the excited fluorochromes. The results are presented as graphs obtained with the analysis program BD Facs suite v1.0.5.3841 (Becton Dickinson). […] Then, a second graph is obtained with the parameters SSC and FITC (fluorescence parameter indicating the cells containing SYBR Green), to differentiate the cells from the other particles that may be present in the sample. Lastly, a third graph is obtained with the fluorescence parameters FITC and PerCPCy5.5 (indicating the cells stained with propidium iodide) to differentiate the cells that have been stained only by SYBR Green from those stained with propidium iodide, which will be those that have died.
The antimicrobial activity of the peptide PaSK was determined by flow cytometry. […] Therefore, the use of these two fluorochromes provides a method for determining viable cells, quantifying the loss of cell viability from the increase in propidium iodide inside the dead cells.
After incubating the cells of strain CECT 4013 of S. aureus with 25 μg/mL of the peptides TcDef3-pep and PaSK, the percentage of dead cells was determined. […] FIGS. 1A-1D show the graphs corresponding to the fluorescence obtained in the windows of the flow cytometer.

[1] = test system: MDA-MB-231 triple-negative breast cancer cells; assay: Cell viability MTS assay, cytotoxic effect; assay type: cell-based, human; settings: around 100 μM (400 μg/mL)
Procedure: Cell viability was determined by the MTS method. The MDA-MB-231 cells cultured in plates with 96 wells at 37° C. in an atmosphere humidified with 10% CO2 to a density of 5×10^3 cells/well were incubated with different concentrations of the peptide PaSK for 24 h. Then 20 μL were added of the solution MTS/PMS (3-(4,5-dimethylthiazol-2-yl)-5-(3-carboxymethoxyfenyl)-2-(4-sulphophenyl)-2H-tetrazole/phenazine methosulphate) to each well and after incubating for 2 h in the dark the absorbance at 490 nm was read in a plate reader. The percentage reduction in number of cells was calculated according to the formula (1−E/C)×100, where E is the absorbance of the cells treated with the peptide and C is the absorbance of the samples of the control cells.
The cytotoxic effect of the peptide PaSK has been studied in two cell lines of triple-negative breast cancer cells, one human (MDA-MB-231) and one mouse (4T1), and a line of normal mouse mammary epithelial cells (HC-11). To this end, a cell viability MTS assay was performed, based on the use of a compound derived from tetrazolium that is reduced in live cells to form a soluble coloured product. […]

MDA-MB-231 cells = assay: Differential proteomic analysis by SWATH; assay type: cell-based, human

CC[C@H](C)[C@H](NC(=O)[C@H](CCCNC(=N)N)NC(=O)[C@H](CCCNC(=N)N)NC(=O)[C@H](CCCCN)NC(=O)[C@H](CC(N)=O)NC(=O)[C@H](CS)NC(=O)[C@H](Cc1ccc(O)cc1)NC(=O)CNC(=O)CNC(=O)[C@H](CCCNC(=N)N)NC(=O)[C@H](CCCCN)NC(=O)[C@H](CCCNC(=N)N)NC(=O)[C@H](CCCCN)NC(=O)[C@H](CC(C)C)NC(=O)[C@H](CC(C)C)NC(=O)[C@H](CS)NC(=O)[C@H](Cc1c[nH]cn1)NC(=O)[C@H](C)NC(=O)[C@H](C)NC(=O)[C@H](CS)NC(=O)[C@H](C)NC(=O)[C@H](C)NC(=O)[C@H](Cc1c[nH]cn1)NC(=O)[C@H](CC(N)=O)NC(=O)[C@@H](NC(=O)[C@@H](N)CCCCN)C(C)C)C(=O)N[C@@H](CS)C(=O)N[C@H](C(=O)N[C@@H](CS)C(=O)N[C@@H](CCCNC(=N)N)C(=O)N[C@@H](CC(N)=O)C(=O)O)C(C)C [PaSK] (H-KVNHAACAAHCLLKRKRGGYCNKRRICVCRN-OH; N-terminus and C-terminus assumed)
percentage of cell death (cytotoxicity) (S. aureus; 10 μg/mL, same conditions): ~100% | percentage of dead cells (cytotoxicity) (S. aureus; 25 μg/mL, 8 h at 37° C., 2 replicates): ~100% | cytotoxicity compared with the other cell lines [1]: significantly more cytotoxic | T/C change ratio (MDA-MB-231 cells): 1.45 | T/C change ratio (MDA-MB-231 cells; ASNA_HUMAN, ATPase ASNA1): 0.21 | T/C change ratio (MDA-MB-231 cells; BAZ1B_HUMAN, Tyrosine-protein kinase BAZ1B): 0.31 | T/C change ratio (MDA-MB-231 cells; CALD1_HUMAN, Caldesmon): 0.71 | T/C change ratio (MDA-MB-231 cells; CDCP1_HUMAN, Protein 1 containing domain CUB): 1.22 | T/C change ratio (MDA-MB-231 cells; CK068_HUMAN, UPF0696 protein C11orf68): 0.83 | T/C change ratio (MDA-MB-231 cells; DCUP_HUMAN, Uroporfphyrinogen decarboxylase): 0.21 | T/C change ratio (MDA-MB-231 cells; DDX17_HUMAN, Probable DDX17 ATP-dependent RNA helicase): 0.84 | T/C change ratio (MDA-MB-231 cells; DENR_HUMAN, Density regulated protein): 0.31 | T/C change ratio (MDA-MB-231 cells; DHX36_HUMAN, DHX36 ATP-dependent RNA helicase): 0.27 | T/C change ratio (MDA-MB-231 cells; DPOD1_HUMAN, DNA polymerase delta catalytic subunit): 0.50 | T/C change ratio (MDA-MB-231 cells; EIF3B_HUMAN, Eukaryotic translation initiation factor 3B (EIF3B)): 0.84 | T/C change ratio (MDA-MB-231 cells; FXR1_HUMAN, Fragile X mental retardation protein 1): 0.76 | T/C change ratio (MDA-MB-231 cells; GPX1_HUMAN, Glutathione peroxidase 1 (GPX1)): 5.89 | T/C change ratio (MDA-MB-231 cells; KAD2_HUMAN, Adenylate kinase 2, mitochondrial): 0.51 | T/C change ratio (MDA-MB-231 cells; LARP1_HUMAN, La related protein 1 (LARP1)): 0.28 | T/C change ratio (MDA-MB-231 cells; MANF_HUMAN, Mesencephalic astrocyte-derived neurotrophic factor): 0.63 | T/C change ratio (MDA-MB-231 cells; MMP14_HUMAN, Matrix metalloprotease-14): 1.92 | T/C change ratio (MDA-MB-231 cells; PYRG1_HUMAN, CTP synthase 1): 0.82 | T/C change ratio (MDA-MB-231 cells; RL5_HUMAN, 60 S ribosomal protein L5 (RPSL5)): 0.60 | T/C change ratio (MDA-MB-231 cells; RS13_HUMAN, 40S ribosomal protein S13 (RPS13)): 0.82 | T/C change ratio (MDA-MB-231 cells; SDCB1_HUMAN, Sintenin-1): 1.43 | T/C change ratio (MDA-MB-231 cells; SET_HUMAN, SET protein): 0.90 | T/C change ratio (MDA-MB-231 cells; SH3G1_HUMAN, Endophilin-A2): 0.63 | T/C change ratio (MDA-MB-231 cells; SHLB2_HUMAN, Endophilin-B2): 0.29 | T/C change ratio (MDA-MB-231 cells; SQRD_HUMAN, Sulphide: quinone oxidoreductase (SQRDL), mitochondrial): 1.30 | T/C change ratio (MDA-MB-231 cells; TAGL2_HUMAN, Transgelin-2): 0.75 | T/C change ratio (MDA-MB-231 cells; TM9S4_HUMAN, Member 4 of the transmembrane 9 superfamily): 0.37 | T/C change ratio (MDA-MB-231 cells; TPM4_HUMAN, Tropomyosin alpha-4 chain): 0.74 | T/C change ratio (MDA-MB-231 cells; TRXR1_HUMAN, Thioredoxin reductase 1 (TXNRD1), cytoplasmic): 1.59 | T/C change ratio (MDA-MB-231 cells; U2AF2_HUMAN, U2AF union factor 65 kDa subunit): 0.31
